The assay has as its system MV-4-11 cells. The experiment in a line: Gene expression microarray analysis (Affymetrix PrimeView) and GSEA. It is filed as cell-based, human. Set-up: RFU PODN (11730768_x_at) / Fold change /veh PODN (11730768_x_at) / RFU LINC00158 (11744669_a_at) / Fold change /veh LINC00158 (11744669_a_at) / RFU DUSP10 (11751237_a_at) / Fold change /veh DUSP10 (11751237_a_at) / RFU ID3 (11757404_x_at) / Fold change /veh ID3 (11757404_x_at) / RFU PLEKHG5 (11737974_s_at) / Fold change /veh PLEKHG5 (11737974_s_at) / RFU LRRC4B (11730491_at) / Fold change /veh LRRC4B (11730491_at) / RFU GIMAP4 (11747438_a_at) / Fold change /veh GIMAP4 (11747438_a_at) / RFU KRT8 (11758183_x_at) / Fold change /veh KRT8 (11758183_x_at) / RFU CNN1 (11734310_a_at) / Fold change /veh CNN1 (11734310_a_at) / RFU VPS37D (11726825_at) / Fold change /veh VPS37D (11726825_at) / RFU C10orf10 (11716522_x_at) / Fold change /veh C10orf10 (11716522_x_at) / RFU KIR2DL2 /// KIR2DL4 /// KIR2DL5A /// KIR2DL5B /// KIR2DS1 /// KIR2DS2 /// KIR2DS3 /// KIR2DS4 /// KIR3DL3 /// KIR3DL3 /// KIR3DS1 (11738374_at) / Fold change /veh KIR2DL2 /// KIR2DL4 /// KIR2DL5A /// KIR2DL5B /// KIR2DS1 /// KIR2DS2 /// KIR2DS3 /// KIR2DS4 /// KIR3DL3 /// KIR3DL3 /// KIR3DS1 (11738374_at) / RFU C1QL1 (11718748_at) / Fold change /veh C1QL1 (11718748_at) / RFU TMPRSS4 (11747572_a_at) / Fold change /veh TMPRSS4 (11747572_a_at) / RFU HAMP (11756126_x_at) / Fold change /veh HAMP (11756126_x_at) / RFU RNFT2 (11725882_a_at) / Fold change /veh RNFT2 (11725882_a_at) / RFU NR4A2 (11747474_a_at) / Fold change /veh NR4A2 (11747474_a_at) / RFU ABCC12 (11746883_a_at) / Fold change /veh ABCC12 (11746883_a_at) / RFU TMEM136 (11760407_x_at) / Fold change /veh TMEM136 (11760407_x_at) / RFU CLDN22 /// WWC2 (11732394_at) / Fold change /veh CLDN22 /// WWC2 (11732394_at) / RFU HLA-DPB1 (11760878_x_at) / Fold change /veh HLA-DPB1 (11760878_x_at) / RFU SPINT1 (11716480_a_at) / Fold change /veh SPINT1 (11716480_a_at) / RFU GAP43 (11754022_s_at) / Fold change /veh GAP43 (11754022_s_at) / RFU A4GNT (11735810_at) / Fold change /veh A4GNT (11735810_at) / RFU PRB3 (11715151_x_at) / Fold change /veh PRB3 (11715151_x_at) / RFU TUBB4B (11761932_at) / Fold change /veh TUBB4B (11761932_at) / RFU CAPN14 (11732068_a_at) / Fold change /veh CAPN14 (11732068_a_at) / RFU TMCC2 (11721928_a_at) / Fold change /veh TMCC2 (11721928_a_at) / RFU IRGQ (11745062_a_at) / Fold change /veh IRGQ (11745062_a_at) / RFU FAM174B (11720279_a_at) / Fold change /veh FAM174B (11720279_a_at) / RFU TMPRSS4 (11748680_a_at) / Fold change /veh TMPRSS4 (11748680_a_at) / RFU FAM212B (11763350_a_at) / Fold change /veh FAM212B (11763350_a_at) / RFU PLEKHG5 (11743358_a_at) / Fold change /veh PLEKHG5 (11743358_a_at) / RFU ZSCAN30 (11745921_a_at) / Fold change /veh ZSCAN30 (11745921_a_at) / RFU CMKLR1 (11741424_a_at) / Fold change /veh CMKLR1 (11741424_a_at) / RFU LOC101060620 /// MAPK8IP1 (11723275_at) / Fold change /veh LOC101060620 /// MAPK8IP1 (11723275_at) / RFU SPTSSB (11747773_x_at) / Fold change /veh SPTSSB (11747773_x_at) / RFU PRSS12 (11739890_at) / Fold change /veh PRSS12 (11739890_at) / RFU BIN1 (11741810_x_at) / Fold change /veh BIN1 (11741810_x_at) / RFU WNT11 (11732464_a_at) / Fold change /veh WNT11 (11732464_a_at) / RFU C10orf10 (11716521_a_at) / Fold change /veh C10orf10 (11716521_a_at) / RFU C5orf56 (11738089_at) / Fold change /veh C5orf56 (11738089_at) / RFU CYB561 (11721691_x_at) / Fold change /veh CYB561 (11721691_x_at) / RFU ANKRD19P (11752326_a_at) / Fold change /veh ANKRD19P (11752326_a_at) / RFU OR2T12 /// OR2T33 /// OR2T8 (11738714_s_at) / Fold change /veh OR2T12 /// OR2T33 /// OR2T8 (11738714_s_at) / RFU VCAN (11748164_a_at) / Fold change /veh VCAN (11748164_a_at) / RFU JSRP1 (11732532_at) / Fold change /veh JSRP1 (11732532_at) / RFU KRTAP10-11 (11738290_x_at) / Fold change /veh KRTAP10-11 (11738290_x_at) / RFU MYO3A (11730013_a_at) / Fold change /veh MYO3A (11730013_a_at) / RFU EBF3 (11725865_a_at) / Fold change /veh EBF3 (11725865_a_at) / RFU CAMK2N1 (11719241_x_at) / Fold change /veh CAMK2N1 (11719241_x_at) / RFU C5orf56 (11738088_a_at) / Fold change /veh C5orf56 (11738088_a_at) / RFU OLFML3 (11715873_a_at) / Fold change /veh OLFML3 (11715873_a_at) / RFU LOC100653217 /// NTM (11731650_a_at) / Fold change /veh LOC100653217 /// NTM (11731650_a_at) / RFU MAPK11 (11762145_a_at) / Fold change /veh MAPK11 (11762145_a_at) / RFU FIZ1 (11724087_x_at) / Fold change /veh FIZ1 (11724087_x_at) / RFU OASL (11726364_x_at) / Fold change /veh OASL (11726364_x_at) / RFU SOX15 (11748057_x_at) / Fold change /veh SOX15 (11748057_x_at) / RFU CD79A (11719716_a_at) / Fold change /veh CD79A (11719716_a_at) / RFU HIST1H1D (11736915_at) / Fold change /veh HIST1H1D (11736915_at) / RFU CASKIN2 (11723855_a_at) / Fold change /veh CASKIN2 (11723855_a_at) / RFU LOC730098 (11760151_x_at) / Fold change /veh LOC730098 (11760151_x_at) / RFU OR4N2 (11742367_at) / Fold change /veh OR4N2 (11742367_at) / RFU PRRT2 (11749266_a_at) / Fold change /veh PRRT2 (11749266_a_at) / RFU SNX32 (11753110_a_at) / Fold change /veh SNX32 (11753110_a_at) / RFU CDHR5 (11726645_a_at) / Fold change /veh CDHR5 (11726645_a_at) / RFU RCAN1 (11760418_a_at) / Fold change /veh RCAN1 (11760418_a_at) / RFU FAM167A (11723789_a_at) / Fold change /veh FAM167A (11723789_a_at) / RFU FAM26E (11764081_at) / Fold change /veh FAM26E (11764081_at) / RFU ISYNA1 (11749810_s_at) / Fold change /veh ISYNA1 (11749810_s_at) / RFU ACY1 (11761880_at) / Fold change /veh ACY1 (11761880_at) / RFU 11764098_at / Fold change /veh 11764098_at / RFU SAMD14 (11745864_x_at) / Fold change /veh SAMD14 (11745864_x_at) / RFU NPB (11741838_a_at) / Fold change /veh NPB (11741838_a_at) / RFU TMPRSS6 (11731388_a_at) / Fold change /veh TMPRSS6 (11731388_a_at) / RFU KRTAP10-2 (11738614_at) / Fold change /veh KRTAP10-2 (11738614_at) / RFU ARHGAP8 /// PRR5-ARHGAP8 (11727945_x_at) / Fold change /veh ARHGAP8 /// PRR5-ARHGAP8 (11727945_x_at) / RFU KRTAP5-7 /// NADSYN1 (11734609_at) / Fold change /veh KRTAP5-7 /// NADSYN1 (11734609_at) / RFU RASL12 (11751679_a_at) / Fold change /veh RASL12 (11751679_a_at) / RFU CDKN2B (11736163_a_at) / Fold change /veh CDKN2B (11736163_a_at) / RFU PRF1 (11729649_at) / Fold change /veh PRF1 (11729649_at) / RFU, ZNF638 /// ZNF638-IT1 / Fold change vs veh, ZNF638 /// ZNF638-IT1 / RFU, PANK3 / Fold change vs veh, PANK3 / RFU, SH3YL1 / Fold change vs veh, SH3YL1 / RFU, ZEB2 / Fold change vs veh, ZEB2 / RFU, NRIP1 / Fold change vs veh, NRIP1 / RFU, PTTG1IP / Fold change vs veh, PTTG1IP / RFU, CAPN2 / Fold change vs veh, CAPN2 / RFU, MED14 / Fold change vs veh, MED14 / RFU, SNORA58 / Fold change vs veh, SNORA58 / RFU, C1orf63 / Fold change vs veh, C1orf63 / RFU, LRRFIP1 / Fold change vs veh, LRRFIP1 / RFU, NDUFAF7 / Fold change vs veh, NDUFAF7 / RFU, SLC12A2 / Fold change vs veh, SLC12A2 / RFU, IBTK / Fold change vs veh, IBTK / RFU, ESF1 / Fold change vs veh, ESF1 / Fold change vs veh, TMEM50B / RFU, TAOK1 / Fold change vs veh, TAOK1 / RFU, ACBD3 / Fold change vs veh, ACBD3 / RFU, TMA16 / Fold change vs veh, TMA16 / RFU, RWDD3 / Fold change vs veh, RWDD3 / RFU, BCAT1 / Fold change vs veh, BCAT1 / RFU, EDEM3 / Fold change vs veh, EDEM3 / RFU, TMEM33 / Fold change vs veh, TMEM33 / RFU, WDR75 / Fold change vs veh, WDR75 / RFU, AHCTF1 / Fold change vs veh, AHCTF1 / RFU, TFRC / Fold change vs veh, TFRC / RFU, ZDHHC17 / Fold change vs veh, ZDHHC17 / RFU, NOM1 / Fold change vs veh, NOM1 / RFU, ARL8B / Fold change vs veh, ARL8B / RFU, ZBTB11 / Fold change vs veh, ZBTB11 / RFU, TAMM41 / Fold change vs veh, TAMM41 / RFU, KIAA1704 /// LOC100996395 / Fold change vs veh, KIAA1704 /// LOC100996395 / RFU, ING1 / Fold change vs veh, ING1 / RFU, TRMT61B / Fold change vs veh, TRMT61B / RFU, FUBP3 / Fold change vs veh, FUBP3 / RFU, TP53 / Fold change vs veh, TP53 / RFU, TNKS2 / Fold change vs veh, TNKS2 / RFU, ZFP14 / Fold change vs veh, ZFP14 / RFU, ACTR2 / Fold change vs veh, ACTR2 / RFU, PPP3R1 / Fold change vs veh, PPP3R1 / RFU, PIK3R1 / Fold change vs veh, PIK3R1 / RFU, HNRNPA1 / Fold change vs veh, HNRNPA1 / RFU, RNF170 / Fold change vs veh, RNF170 / RFU, ZNF28 / Fold change vs veh, ZNF28 / RFU, RNGTT / Fold change vs veh, RNGTT / RFU, OGT / Fold change vs veh, OGT / RFU, BRD1 / Fold change vs veh, BRD1 / RFU, MARS / Fold change vs veh, MARS / RFU, ZNF655 / Fold change vs veh, ZNF655 / RFU, FAHD1 / Fold change vs veh, FAHD1 / RFU, BDP1 / Fold change vs veh, BDP1 / RFU, LRRCC1 / Fold change vs veh, LRRCC1 / RFU, ARID1A / Fold change vs veh, ARID1A / RFU, ZNF146 / Fold change vs veh, ZNF146 / RFU, ZNF330 / Fold change vs veh, ZNF330 / RFU, GPN3 / Fold change vs veh, GPN3 / RFU, C9orf123 / Fold change vs veh, C9orf123 / RFU, N4BP2L2 / Fold change vs veh, N4BP2L2 / RFU, ARFIP1 / Fold change vs veh, ARFIP1 / RFU, FAM179B / Fold change vs veh, FAM179B / RFU, BCL10 / Fold change vs veh, BCL10 / RFU, UHRF1BP1L / Fold change vs veh, UHRF1BP1L / RFU, BET1 / Fold change vs veh, BET1 / RFU, CNOT2 / Fold change vs veh, CNOT2 / RFU, ZNF268 / Fold change vs veh, ZNF268 / Fold change vs veh, ZNF507 / RFU, DGCR2 / Fold change vs veh, DGCR2 / RFU, WDSUB1 / Fold change vs veh, WDSUB1 / Fold change vs veh, HSP90B1 /// MIR3652 / RFU, ADSS / Fold change vs veh, ADSS / RFU, GK / Fold change vs veh, GK / RFU, ZNF148 / Fold change vs veh, ZNF148 / RFU, TAF9 / Fold change vs veh, TAF9 / RFU, SLC1A5 / Fold change vs veh, SLC1A5 / RFU, SLMO2 / Fold change vs veh, SLMO2 / RFU, ABCC4 / Fold change vs veh, ABCC4 / RFU, LOC101060439 /// RAP1B / Fold change vs veh, LOC101060439 /// RAP1B / RFU, RFX7 / Fold change vs veh, RFX7 / RFU, GTPBP10 / Fold change vs veh, GTPBP10 / RFU, CNEP1R1 / Fold change vs veh, CNEP1R1 / RFU, BIVM-ERCC5 /// ERCC5 / Fold change vs veh, BIVM-ERCC5 /// ERCC5 / RFU, ILF3 / Fold change vs veh, ILF3 / RFU 11762660_at / Fold change /veh 11762660_at / RFU VCAN (11757783_s_at) / Fold change /veh VCAN (11757783_s_at) / RFU DDX43 (11728927_at) / Fold change /veh DDX43 (11728927_at) / RFU KRT8 (11758188_x_at) / Fold change /veh KRT8 (11758188_x_at) / RFU NKD1 (11759106_at) / Fold change /veh NKD1 (11759106_at) / RFU SRD5A1 (11742802_a_at) / Fold change /veh SRD5A1 (11742802_a_at) / RFU TPSAB1 /// TPSB2 (11721975_s_at) / Fold change /veh TPSAB1 /// TPSB2 (11721975_s_at) / RFU GSTM3 (11746129_a_at) / Fold change /veh GSTM3 (11746129_a_at) / RFU IL23R (11737362_x_at) / Fold change /veh IL23R (11737362_x_at) / RFU TMEM51 (11727254_a_at) / Fold change /veh TMEM51 (11727254_a_at) / RFU PIWIL2 (11732686_x_at) / Fold change /veh PIWIL2 (11732686_x_at) / RFU ORM1 (11744905_x_at) / Fold change /veh ORM1 (11744905_x_at) / RFU CCDC152 (11743942_at) / Fold change /veh CCDC152 (11743942_at) / RFU ECM1 (11717891_a_at) / Fold change /veh ECM1 (11717891_a_at) / RFU IL23R (11748794_a_at) / Fold change /veh IL23R (11748794_a_at) / RFU TNFAIP8L3 (11732012_x_at) / Fold change /veh TNFAIP8L3 (11732012_x_at) / RFU MBOAT4 (11741988_at) / Fold change /veh MBOAT4 (11741988_at) / RFU 11764193_at / Fold change /veh 11764193_at / RFU TMEM53 (11763286_at) / Fold change /veh TMEM53 (11763286_at) / RFU MAGEB2 (11727129_at) / Fold change /veh MAGEB2 (11727129_at) / RFU TMEM200A (11744735_a_at) / Fold change /veh TMEM200A (11744735_a_at) / RFU CCDC152 (11751479_a_at) / Fold change /veh CCDC152 (11751479_a_at) / RFU FAM211A (11726209_a_at) / Fold change /veh FAM211A (11726209_a_at) / RFU RGS16 (11746705_a_at) / Fold change /veh RGS16 (11746705_a_at) / RFU VCAN (11755009_s_at) / Fold change /veh VCAN (11755009_s_at) / RFU RHOB (11743442_s_at) / Fold change /veh RHOB (11743442_s_at) / RFU RGS16 (11720943_a_at) / Fold change /veh RGS16 (11720943_a_at) / RFU RGS16 (11720944_at) / Fold change /veh RGS16 (11720944_at) / RFU, VPS4B / Fold change vs veh, VPS4B / RFU, CREB1 / Fold change vs veh, CREB1 / RFU, DNAJC13 / Fold change vs veh, DNAJC13 / RFU, GNAQ / Fold change vs veh, GNAQ / RFU, CDK5R1 / Fold change vs veh, CDK5R1 / RFU, ZRANB3 / Fold change vs veh, ZRANB3 / RFU, CUL4A / Fold change vs veh, CUL4A / RFU, CCNY / Fold change vs veh, CCNY / RFU, UFL1 / Fold change vs veh, UFL1 / RFU, COG3 / Fold change vs veh, COG3 / RFU, DIAPH2 / Fold change vs veh, DIAPH2 / RFU, SKA2 / Fold change vs veh, SKA2 / RFU, AFF3 / Fold change vs veh, AFF3 / RFU, LMF1 / Fold change vs veh, LMF1 / RFU, IPO11 / Fold change vs veh, IPO11 / RFU, DFFB / Fold change vs veh, DFFB / RFU, FOXP1 / Fold change vs veh, FOXP1 / RFU, CARD8 / Fold change vs veh, CARD8 / RFU, STRN3 / Fold change vs veh, STRN3 / RFU, ADK / Fold change vs veh, ADK / RFU, RASSF2 / Fold change vs veh, RASSF2 / RFU, WIPF1 / Fold change vs veh, WIPF1 / RFU, LARP1B / Fold change vs veh, LARP1B / RFU, RASA1 / Fold change vs veh, RASA1 / RFU, RB1 / Fold change vs veh, RB1 / RFU, PPFIA1 / Fold change vs veh, PPFIA1 / RFU, MAT2A / Fold change vs veh, MAT2A / RFU, CCT5 / Fold change vs veh, CCT5 / RFU, WDR92 / Fold change vs veh, WDR92 / RFU, CUX1 / Fold change vs veh, CUX1 / RFU, TTC7A / Fold change vs veh, TTC7A / RFU, TMEM135 / Fold change vs veh, TMEM135 / RFU, DEPTOR / Fold change vs veh, DEPTOR / RFU, CPM / Fold change vs veh, CPM / RFU, DNAJB6 / Fold change vs veh, DNAJB6 / RFU, CACNA2D3 / Fold change vs veh, CACNA2D3 / RFU, DTX4 / Fold change vs veh, DTX4 / RFU, TFCP2 / Fold change vs veh, TFCP2 / RFU, GMCL1 /// GMCL1P1 / Fold change vs veh, GMCL1 /// GMCL1P1 / RFU, AEBP2 / Fold change vs veh, AEBP2 / RFU, SNHG1 /// SNORD22 /// SNORD25 /// SNORD26 /// SNORD27 /// SNORD28 /// SNORD29 /// SNORD31 / Fold change vs veh, SNHG1 /// SNORD22 /// SNORD25 /// SNORD26 /// SNORD27 /// SNORD28 /// SNORD29 /// SNORD31 / Fold change (Aza/veh), C12orf56 (ProbeSet 11735607_a_at) / Fold change (ACY-1035/veh), C12orf56 (ProbeSet 11735607_a_at) / Fold change (Aza/veh), FGFR1OP (ProbeSet 11751329_s_at) / Fold change (ACY-1035/veh), FGFR1OP (ProbeSet 11751329_s_at) / Fold change (Aza/veh), VPS36 (ProbeSet 11739960_a_at) / Fold change (ACY-1035/veh), VPS36 (ProbeSet 11739960_a_at) / RFU SYPL1 (11715823_x_at) / Fold change /veh SYPL1 (11715823_x_at) / RFU IGFBP7 (11715501_s_at) / Fold change /veh IGFBP7 (11715501_s_at) / RFU REEP3 (11722064_at) / Fold change /veh REEP3 (11722064_at) / RFU IGLL1 (11728026_x_at) / Fold change /veh IGLL1 (11728026_x_at): dose or concentration left out as unconfirmed. The conditions noted are these: MV-4-11 cells, 48 hours.

Each structure is given as a SMILES string.

In the case of `Nc1ncn([C@@H]2O[C@H](CO)[C@@H](O)[C@H]2O)c(=O)n1` [azacitidine], the “RFU CCDC152 (11751479_a_at)” value is 11.18 RFU.
